ChEMBL document CHEMBL4311992, “Discovery of 3-(((9H-purin-6-yl)amino)methyl)-4,6-dimethylpyridin-2(1H)-one derivatives as novel tubulin polymerization inhibitors for treatment of cancer” (Eur J Med Chem, 2019)
pIC50: −log10 of the molar value.

Key:
[1] = target: MAP/microtubule affinity-regulating kinase 3 (Homo sapiens) (UniProt P27448); assay: Inhibition of recombinant full-length human MARK3 assessed as residual activity at 10 uM using KKKVSRSGLYRSPSMPENLNRPR as substrate measured after 40 mins in presence of [gamma33P]ATP by scintillation counting method
[2] = target: Serine/threonine-protein kinase 24 (Homo sapiens) (UniProt Q9Y6E0); assay: Inhibition of recombinant human MST3 (1 to 304 residues) assessed as residual activity at 10 uM using ERMRPRKRQGSVRRRV as substrate measured after 40 mins in presence of [gamma33P]ATP by scintillation counting method
[3] = target: Dual specificity protein kinase CLK1 (Homo sapiens) (UniProt P49759); assay: Inhibition of recombinant human CLK1 (130 to end residues) assessed as residual activity at 10 uM using ERMRPRKRQGSVRRRV as substrate measured after 40 mins in presence of [gamma33P]ATP by scintillation counting method
Chain of Dual specificity protein kinase CLK1 (Homo sapiens) (P49759 whole entry, looked up): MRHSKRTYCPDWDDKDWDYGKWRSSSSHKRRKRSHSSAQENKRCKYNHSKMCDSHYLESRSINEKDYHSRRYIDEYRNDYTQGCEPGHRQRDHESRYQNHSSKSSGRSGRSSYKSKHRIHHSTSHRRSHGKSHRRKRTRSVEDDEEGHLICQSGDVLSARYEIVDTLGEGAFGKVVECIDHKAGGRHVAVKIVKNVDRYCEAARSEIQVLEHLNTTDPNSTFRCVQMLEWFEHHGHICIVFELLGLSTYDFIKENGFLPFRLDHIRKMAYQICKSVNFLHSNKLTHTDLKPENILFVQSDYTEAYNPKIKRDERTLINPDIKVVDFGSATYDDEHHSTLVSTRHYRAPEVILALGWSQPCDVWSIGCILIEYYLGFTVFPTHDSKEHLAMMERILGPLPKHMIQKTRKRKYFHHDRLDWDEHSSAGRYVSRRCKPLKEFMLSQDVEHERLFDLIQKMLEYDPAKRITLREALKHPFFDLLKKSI

HCT-116 = assay: Induction of apoptosis in human HCT116 cells assessed as early apoptotic cells at 100 nM measured after 48 hrs by Annexin V-FITC/propidium iodide staining-based flow cytometry (reference value: 0.418%); assay type: functional
HepG2 = assay: cells; conditions: Homo sapiens, HepG2, 72 h
DLD-1 = assay: Antiproliferative activity against human DLD1 cells assessed as reduction in cell viability after 72 hrs by MTT assay; assay type: functional, cell-based; conditions: DLD-1, 72 h
[4] = system: Epidermal growth factor receptor (Homo sapiens), P00533 [L861Q]; assay: Inhibition of recombinant human EGFR L861Q mutant (696 to end residues) assessed as residual activity at 10 uM using poly(Glu, Tyr) 4:1 as substrate measured after 40 mins in presence of [gamma33P]ATP by scintillation counting method
[5] = target: Serine/threonine-protein kinase D2 (Homo sapiens) (UniProt Q9BZL6); assay: Inhibition of recombinant full-length human PKD2 assessed as residual activity at 10 uM using KKLNRTLSVA as substrate measured after 40 mins in presence of [gamma33P]ATP by scintillation counting method
[6] = target: Serine/threonine-protein kinase 17B (Homo sapiens) (UniProt O94768); assay: Inhibition of recombinant full-length human DRAK2 assessed as residual activity at 10 uM using KKRPQRRYSNVF as substrate measured after 120 mins in presence of [gamma33P]ATP by scintillation counting method
[7] = target: Ribosomal protein S6 kinase alpha-2 (Homo sapiens) (UniProt Q15349); assay: Inhibition of recombinant full-length human Rsk3 assessed as residual activity at 10 uM using KKKNRTLSVA as substrate measured after 40 mins in presence of [gamma33P]ATP by scintillation counting method
Chain of Ribosomal protein S6 kinase alpha-2 (Homo sapiens) (Q15349 whole entry, the tested form may be a part): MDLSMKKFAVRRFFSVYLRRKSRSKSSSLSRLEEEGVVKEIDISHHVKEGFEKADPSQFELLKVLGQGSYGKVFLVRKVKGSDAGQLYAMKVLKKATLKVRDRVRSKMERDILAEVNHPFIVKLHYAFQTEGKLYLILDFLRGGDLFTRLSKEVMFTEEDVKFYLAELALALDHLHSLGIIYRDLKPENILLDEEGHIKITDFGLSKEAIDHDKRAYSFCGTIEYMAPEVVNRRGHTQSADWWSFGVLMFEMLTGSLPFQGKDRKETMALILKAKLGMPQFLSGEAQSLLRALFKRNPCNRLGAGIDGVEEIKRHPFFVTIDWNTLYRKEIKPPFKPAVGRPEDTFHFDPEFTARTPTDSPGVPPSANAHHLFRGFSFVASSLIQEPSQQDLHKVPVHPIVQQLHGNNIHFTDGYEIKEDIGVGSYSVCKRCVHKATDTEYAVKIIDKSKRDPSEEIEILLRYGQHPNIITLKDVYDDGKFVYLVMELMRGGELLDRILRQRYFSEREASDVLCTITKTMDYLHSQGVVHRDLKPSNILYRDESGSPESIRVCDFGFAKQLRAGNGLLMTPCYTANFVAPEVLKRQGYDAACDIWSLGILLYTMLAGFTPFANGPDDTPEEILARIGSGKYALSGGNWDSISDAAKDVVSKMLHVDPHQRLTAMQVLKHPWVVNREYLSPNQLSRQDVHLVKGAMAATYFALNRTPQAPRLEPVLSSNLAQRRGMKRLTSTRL

[8] = target: Serine/threonine-protein kinase WNK2 (Homo sapiens) (UniProt Q9Y3S1); assay: Inhibition of human WNK2 (166 to 489 residues) using myelin basic protein as substrate measured after 40 mins in presence of [gamma33P]ATP by scintillation counting method; design: scale not given: the % may be the effect or the level left
[9] = target: Insulin-like growth factor 1 receptor (Homo sapiens) (UniProt P08069); assay: Inhibition of recombinant human IGF1R (959 to end residues) assessed as residual activity at 10 uM using KKKSPGEYVNIEFG as substrate measured after 40 mins in presence of [gamma33P]ATP by scintillation counting method
[10] = target: Serine/threonine-protein kinase 26 (Homo sapiens) (UniProt Q9P289); assay: Inhibition of recombinant human MST4 (4 to 304 residues) assessed as residual activity at 10 uM using RLGRDKYKTLRQIRQ as substrate measured after 40 mins in presence of [gamma33P]ATP by scintillation counting method
[11] = target: Serine/threonine-protein kinase/endoribonuclease IRE1 (Homo sapiens) (UniProt O75460); assay: Inhibition of recombinant human IRE1 (465 to end residues) assessed as residual activity at 10 uM using myelin basic protein as substrate measured after 40 mins in presence of [gamma33P]ATP by scintillation counting method
Chain of Serine/threonine-protein kinase/endoribonuclease IRE1 (Homo sapiens) (O75460 19-977 limits assumed): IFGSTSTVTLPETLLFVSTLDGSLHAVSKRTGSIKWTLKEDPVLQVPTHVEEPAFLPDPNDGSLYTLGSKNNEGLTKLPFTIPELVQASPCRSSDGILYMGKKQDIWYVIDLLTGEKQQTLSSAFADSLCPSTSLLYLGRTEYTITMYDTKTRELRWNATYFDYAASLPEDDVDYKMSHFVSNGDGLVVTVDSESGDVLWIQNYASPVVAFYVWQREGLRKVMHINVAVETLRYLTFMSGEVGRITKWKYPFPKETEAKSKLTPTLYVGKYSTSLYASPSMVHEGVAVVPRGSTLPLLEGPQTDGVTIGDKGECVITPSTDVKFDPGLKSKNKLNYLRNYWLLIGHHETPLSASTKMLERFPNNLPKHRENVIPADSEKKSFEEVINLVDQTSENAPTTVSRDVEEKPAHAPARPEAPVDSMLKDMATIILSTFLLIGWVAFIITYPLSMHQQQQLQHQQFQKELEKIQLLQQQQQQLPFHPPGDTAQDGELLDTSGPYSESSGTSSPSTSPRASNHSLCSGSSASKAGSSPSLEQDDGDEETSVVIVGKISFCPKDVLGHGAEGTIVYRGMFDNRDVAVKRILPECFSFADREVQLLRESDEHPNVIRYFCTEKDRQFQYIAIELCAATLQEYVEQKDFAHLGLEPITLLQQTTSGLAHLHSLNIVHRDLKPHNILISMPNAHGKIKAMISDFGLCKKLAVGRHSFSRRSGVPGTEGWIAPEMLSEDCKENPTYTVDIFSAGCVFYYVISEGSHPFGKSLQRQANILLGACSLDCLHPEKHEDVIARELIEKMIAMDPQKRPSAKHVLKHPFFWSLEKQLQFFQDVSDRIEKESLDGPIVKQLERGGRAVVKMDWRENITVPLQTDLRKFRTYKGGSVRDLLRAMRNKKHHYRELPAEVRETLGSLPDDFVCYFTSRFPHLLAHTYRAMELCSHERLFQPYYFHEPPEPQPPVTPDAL

[12] = system: Mast/stem cell growth factor receptor Kit (Homo sapiens), P10721 [V560G]; assay: Inhibition of recombinant human c-Kit V560G mutant (544 to end residues) assessed as residual activity at 10 uM using GGMEDIYFEFMGGKKK as substrate measured after 40 mins in presence of [gamma33P]ATP by scintillation counting method
Chain of Mast/stem cell growth factor receptor Kit (Homo sapiens), P10721 [V560G] (P10721 whole entry V560G, the tested form may be a part): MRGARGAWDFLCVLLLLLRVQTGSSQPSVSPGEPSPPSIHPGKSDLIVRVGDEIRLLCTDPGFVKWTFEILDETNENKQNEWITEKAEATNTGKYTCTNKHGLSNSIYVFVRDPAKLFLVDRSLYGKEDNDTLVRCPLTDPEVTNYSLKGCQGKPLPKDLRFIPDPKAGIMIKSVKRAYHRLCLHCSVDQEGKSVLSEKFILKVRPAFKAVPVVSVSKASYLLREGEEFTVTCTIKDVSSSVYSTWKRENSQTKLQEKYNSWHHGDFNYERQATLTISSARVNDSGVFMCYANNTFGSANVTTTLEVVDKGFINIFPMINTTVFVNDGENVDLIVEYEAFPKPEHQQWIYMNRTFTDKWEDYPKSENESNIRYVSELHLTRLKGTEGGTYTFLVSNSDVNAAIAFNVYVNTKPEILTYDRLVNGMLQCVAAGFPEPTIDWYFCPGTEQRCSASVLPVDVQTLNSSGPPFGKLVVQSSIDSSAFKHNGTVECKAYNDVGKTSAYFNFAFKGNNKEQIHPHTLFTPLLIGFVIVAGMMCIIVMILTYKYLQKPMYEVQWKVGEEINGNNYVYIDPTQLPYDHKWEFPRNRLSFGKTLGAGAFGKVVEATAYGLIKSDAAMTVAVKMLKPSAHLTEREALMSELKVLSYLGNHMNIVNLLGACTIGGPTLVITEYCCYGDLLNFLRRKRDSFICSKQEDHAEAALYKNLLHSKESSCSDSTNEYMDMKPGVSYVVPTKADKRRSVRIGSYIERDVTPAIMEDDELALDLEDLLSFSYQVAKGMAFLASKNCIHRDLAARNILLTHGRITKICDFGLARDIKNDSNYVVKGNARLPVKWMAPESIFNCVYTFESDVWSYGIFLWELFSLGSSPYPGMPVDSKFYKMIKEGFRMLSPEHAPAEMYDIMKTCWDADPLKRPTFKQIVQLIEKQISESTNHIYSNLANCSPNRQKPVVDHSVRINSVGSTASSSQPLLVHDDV

[13] = target: Serine/threonine-protein kinase WNK3 (Homo sapiens) (UniProt Q9BYP7); assay: Inhibition of human WNK3 (1 to 434 residues) using myelin basic protein as substrate measured after 40 mins in presence of [gamma33P]ATP by scintillation counting method; design: scale not given: the % may be the effect or the level left
[14] = system: Serine/threonine-protein kinase Chk2 (Homo sapiens), O96017 [I157T]; assay: Inhibition of recombinant human CHK2 I157T mutant (5 to end residues) assessed as residual activity at 10 uM using KKKVSRSGLYRSPSMPENLNRPR as substrate measured after 40 mins in presence of [gamma33P]ATP by scintillation counting method
Homo sapiens = species on record: Homo sapiens; assay: Inhibition of recombinant human Mer H628Q/R794A mutant (557 to 882 residues) assessed as residual activity at 10 uM using GGMEDIYFEFMGGKKK as substrate measured after 40 mins in presence of [gamma33P]ATP by scintillation counting method
Mus musculus = species on record: Mus musculus; assay: Inhibition of recombinant full-length mouse PI3K p110beta/p85alpha R123L mutant assessed as residual activity at 10 uM using phosphatidylinositol-4, 5-bisphosphate as substrate measured after 40 mins by HTRF assay
[15] = target: Serine/threonine-protein kinase TAO2 (Homo sapiens) (UniProt Q9UL54); assay: Inhibition of human TAO2 (1 to 320 residues) using myelin basic protein as substrate measured after 40 mins in presence of [gamma33P]ATP by scintillation counting method; design: scale not given: the % may be the effect or the level left
Chain of Serine/threonine-protein kinase TAO2 (Homo sapiens) (Q9UL54 whole entry, the tested form may be a part): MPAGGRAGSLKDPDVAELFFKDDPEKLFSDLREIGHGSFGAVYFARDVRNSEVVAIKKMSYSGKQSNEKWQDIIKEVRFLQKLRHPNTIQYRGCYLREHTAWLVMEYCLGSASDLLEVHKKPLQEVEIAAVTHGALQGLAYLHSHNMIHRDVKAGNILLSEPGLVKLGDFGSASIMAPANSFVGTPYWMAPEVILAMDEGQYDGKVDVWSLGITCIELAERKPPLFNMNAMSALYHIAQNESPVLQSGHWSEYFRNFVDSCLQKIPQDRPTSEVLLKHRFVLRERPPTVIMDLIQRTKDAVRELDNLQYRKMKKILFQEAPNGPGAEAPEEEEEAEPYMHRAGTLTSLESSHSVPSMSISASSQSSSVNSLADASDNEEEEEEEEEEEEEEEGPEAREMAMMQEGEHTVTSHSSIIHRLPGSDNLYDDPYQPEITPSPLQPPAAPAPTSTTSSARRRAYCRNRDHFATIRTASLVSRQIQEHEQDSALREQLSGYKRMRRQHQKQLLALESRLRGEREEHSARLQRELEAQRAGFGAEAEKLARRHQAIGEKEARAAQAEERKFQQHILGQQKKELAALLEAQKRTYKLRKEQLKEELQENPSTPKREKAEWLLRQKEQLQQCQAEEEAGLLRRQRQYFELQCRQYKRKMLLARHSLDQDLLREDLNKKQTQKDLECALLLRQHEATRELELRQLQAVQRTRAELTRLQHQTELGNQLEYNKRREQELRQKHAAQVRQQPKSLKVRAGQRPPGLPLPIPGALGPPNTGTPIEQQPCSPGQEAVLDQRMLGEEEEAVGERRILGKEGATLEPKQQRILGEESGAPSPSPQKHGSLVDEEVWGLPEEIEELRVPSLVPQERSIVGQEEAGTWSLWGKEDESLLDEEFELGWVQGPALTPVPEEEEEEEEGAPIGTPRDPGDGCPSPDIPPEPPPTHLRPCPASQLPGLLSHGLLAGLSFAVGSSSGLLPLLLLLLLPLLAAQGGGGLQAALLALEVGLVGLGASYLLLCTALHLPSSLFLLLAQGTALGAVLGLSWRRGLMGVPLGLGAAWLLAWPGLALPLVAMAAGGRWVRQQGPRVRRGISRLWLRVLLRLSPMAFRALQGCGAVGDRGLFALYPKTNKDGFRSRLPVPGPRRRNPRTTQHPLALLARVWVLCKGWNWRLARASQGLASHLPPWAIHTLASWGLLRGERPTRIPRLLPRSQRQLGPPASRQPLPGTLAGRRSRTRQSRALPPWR

[16] = target: Tyrosine-protein kinase Lck (Homo sapiens) (UniProt P06239); assay: Inhibition of recombinant full-length human activated Lck assessed as residual activity at 10 uM using KVEKIGEGTYGVVYK as substrate measured after 40 mins in presence of [gamma33P]ATP by scintillation counting method
[17] = target: Serine/threonine-protein kinase DCLK2 (Homo sapiens) (UniProt Q8N568); assay: Inhibition of recombinant human DCAMKL2 (376 to end residues) assessed as residual activity at 10 uM using KKLNRTLSFAEPG as substrate measured after 40 mins in presence of [gamma33P]ATP by scintillation counting method
[18] = target: Death-associated protein kinase 2 (Homo sapiens) (UniProt Q9UIK4); assay: Inhibition of recombinant full-length human DAPK2 assessed as residual activity at 10 uM using calmodulin as substrate measured after 40 mins in presence of [gamma33P]ATP by scintillation counting method
Chain of Death-associated protein kinase 2 (Homo sapiens) (Q9UIK4 whole entry, looked up): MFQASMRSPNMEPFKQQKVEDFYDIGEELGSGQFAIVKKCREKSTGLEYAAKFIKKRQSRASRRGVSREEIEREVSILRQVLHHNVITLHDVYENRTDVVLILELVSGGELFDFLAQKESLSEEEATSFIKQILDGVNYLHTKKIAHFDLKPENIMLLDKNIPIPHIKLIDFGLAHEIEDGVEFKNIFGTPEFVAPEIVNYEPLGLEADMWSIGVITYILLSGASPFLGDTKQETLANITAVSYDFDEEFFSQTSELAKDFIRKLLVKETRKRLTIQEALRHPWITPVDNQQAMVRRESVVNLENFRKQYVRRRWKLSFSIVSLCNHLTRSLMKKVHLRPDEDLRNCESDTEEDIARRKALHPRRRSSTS

[19] = target: cGMP-dependent protein kinase 1 (Homo sapiens) (UniProt Q13976); assay: Inhibition of recombinant full-length human PKG1alpha assessed as residual activity at 10 uM using RRRLSFAEPG as substrate measured after 40 mins in presence of [gamma33P]ATP by scintillation counting method

Structure (SMILES): Cc1cc(C)c(CNc2nc(Cl)nc3c2ncn3C2CCCC2)c(=O)[nH]1
- Activity [1]: 90%
- Activity [2]: 110%
- Activity [3]: 108%
- Activity (HCT-116): 5.35%
- pIC50 (HepG2): 7.10
- pIC50 (DLD-1): 6.87
- Activity [4]: 98.5%
- Activity [5]: 120%
- Activity [6]: 101%
- Activity [7]: 114%
- Activity [8]: 110%
- Activity [9]: 81%
- Activity [10]: 132%
- Activity [11]: 101%
- Activity [12]: 95.5%
- Activity [13]: 136%
- Activity [14]: 103%
- Activity (Homo sapiens): 109%
- Activity (Mus musculus): 104%
- Activity [15]: 104%
- Activity [16]: 102%
- Activity [17]: 110%
- Activity [18]: 97%
- Activity [19]: 99.5%
